According to article PMC10668861 (2023):

Tested on: F21D (DNA, G4) GGGTTAGGGTTAGGGTTAGGG
Experiment: FRET melting
Details: 5 mM K+, 95 mM Li+; 10 mM lithium cacodylate, pH 7.2; 0.2 µM DNA, 4 µM compound

ΔTm: 14 ± 1 °C
SMILES: [Ru+2].c1ccc(-c2ccccn2)nc1.c1ccc(-c2ccccn2)nc1.c1ccc2nc3c4cccnc4c4ncccc4c3nc2c1
